{"source": "ChEMBL document CHEMBL1153283", "about": "“Synthesis and application of MeOSuc-Ala-Ala-Pro-Phe-CH2Cl as potent proteinase K inhibitor” (Bioorg Med Chem Lett, 2009)", "key": {"[1]": {"assay": "Inhibition of proteinase K at 1 mM by RT-PCR"}, "[2]": {"assay": "Inhibition of proteinase K at […] by RT-PCR"}, "[3]": {"assay": "Inhibition of proteinase K at 0.125 mM by independent digestion assay in presence of BSA"}, "[4]": {"assay": "Inhibition of proteinase K at 0.05 mM by RT-PCR"}, "[5]": {"assay": "Inhibition of proteinase K at 0.25 mM by independent digestion assay in presence of BSA"}}, "note": "Active and inactive are the calls of the source. The rule behind the calls is not given here.", "data": [{"smiles": "COC(=O)CCC(=O)N[C@H](C)C(=O)N[C@@H](C)C(=O)N1CCC[C@H]1C(=O)N[C@H](C(=O)CCl)C(C)C", "values": [{"measurement": "Activity", "setting": "[1]", "result": "Active"}, {"measurement": "Activity", "setting": "[2]", "result": "Active"}, {"measurement": "Activity", "setting": "[3]", "result": "Active"}]}, {"smiles": "COC(=O)CCC(=O)N[C@H](C)C(=O)N[C@@H](C)C(=O)N1CCC[C@H]1C(=O)N[C@@H](Cc1ccccc1)C(=O)CCl", "values": [{"measurement": "Activity", "setting": "[4]", "result": "Active"}, {"measurement": "Activity", "setting": "[5]", "result": "Active"}]}]}
